Some test systems named below: A498 renal; CCRF-CEM leukemia; COLO 205 colon; EKVX NSCLC; HOP-92 NSCLC; HS 578T breast; IGROV1 ovarian; LOX IMVI melanoma; RPMI-8226 leukemia; U251 CNS.
Holding throughout (assay): NCI tumour cell line growth inhibition, 48 h

Molecules are shown by their SMILES.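 Step 1: Grow cells in 96-well plates. Step 2: Expose to compound for 48 hours at 5 concentrations. Step 3: Interpolate endpoints linearly; if unreached, use highest concentration. Abbreviation: GI50, concentration required for 50% inhibition of growth. At the TGI there is no net growth.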

For the compound `Cn1cc(CNCC2CCN(c3ncc(C(=O)NO)cn3)CC2)c2ccccc21`, the GI50 with A498 renal is 0.0102 µM; with CCRF-CEM leukemia it was under 0.0116 µM; with COLO 205 colon it was under 0.0104 µM; in the assay with EKVX NSCLC it was 0.0255 µM; in the assay with HOP-92 NSCLC, under 0.0107 µM; with HS 578T breast it was 0.0185 µM. Further, the GI50 was 0.0245 µM with IGROV1 ovarian, 0.0117 µM in the assay with LOX IMVI melanoma, under 0.01 µM in the assay on RPMI-8226 leukemia and 0.0133 µM with U251 CNS. Moreover, the TGI worked out at 0.0274 µM in the assay with A498 renal; 49.3 µM in the assay on CCRF-CEM leukemia; 0.107 µM with COLO 205 colon; 23.4 µM in the assay on EKVX NSCLC; 0.0399 µM with HOP-92 NSCLC; 42.6 µM in the assay on HS 578T breast. In addition, the TGI in the assay on IGROV1 ovarian amounted to 0.352 µM; with LOX IMVI melanoma it was 0.0325 µM; in the assay on RPMI-8226 leukemia it was 40.5 µM; in the assay with U251 CNS, 0.128 µM.
On to `COC1CC(OC(=O)c2ccccc2)C(OC(=O)c2ccccc2)C(C)O1` (configuration not stated), for which the TGI in the assay with A498 renal, in the assay with CCRF-CEM leukemia, with COLO 205 colon, with EKVX NSCLC, in the assay on HOP-92 NSCLC and with HS 578T breast was over 100 µM each time. The TGI in the assay with IGROV1 ovarian, in the assay on LOX IMVI melanoma, in the assay with RPMI-8226 leukemia and with U251 CNS was over 100 µM in each case.
With `Cc1cc(-c2nnc3n2CCCCC3)c(C)n1-c1ccc(Cl)c(Cl)c1`, the GI50 in the assay on A498 renal is 14 µM; in the assay on CCRF-CEM leukemia, 18.5 µM; in the assay on COLO 205 colon, 10.6 µM; with HOP-92 NSCLC it was 11.9 µM; with HS 578T breast, 16.9 µM; in the assay with IGROV1 ovarian, 17.9 µM. Besides, the GI50 in the assay with LOX IMVI melanoma is 12.1 µM; with RPMI-8226 leukemia it was 9.53 µM; in the assay on U251 CNS, 14.5 µM. In addition, the TGI in the assay on A498 renal was 28 µM; in the assay on CCRF-CEM leukemia it was 71.5 µM; in the assay with COLO 205 colon it was 25.1 µM; with HOP-92 NSCLC, 31.9 µM; in the assay on HS 578T breast, 47 µM; in the assay on IGROV1 ovarian, 42.7 µM. The TGI in the assay with LOX IMVI melanoma was 32.2 µM; in the assay with RPMI-8226 leukemia, 39.9 µM; with U251 CNS it was 31.2 µM.
For the compound `OCC1OC(n2cnc3c(/C=C(/O)c4ccccc4)ncnc32)C(O)C1O` (configuration not stated), the TGI in the assay on A498 renal was over 91.1 µM; in the assay on CCRF-CEM leukemia, over 100 µM; in the assay with COLO 205 colon, 2.7 µM; with EKVX NSCLC, over 100 µM; with HOP-92 NSCLC, over 100 µM; in the assay on HS 578T breast, over 100 µM. In addition, the TGI in the assay on IGROV1 ovarian, in the assay with LOX IMVI melanoma, in the assay with RPMI-8226 leukemia and in the assay with U251 CNS was over 100 µM throughout.
Regarding `Cn1c(=O)c2c(ncn2CN2CCN(Cn3cnc4c3c(=O)n(C)c(=O)n4C)CC2)n(C)c1=O`, the TGI is over 100 µM in the assay on A498 renal; 39.5 µM in the assay with CCRF-CEM leukemia; over 100 µM with COLO 205 colon; over 100 µM with EKVX NSCLC; over 100 µM in the assay on HOP-92 NSCLC; over 100 µM in the assay with HS 578T breast. The TGI in the assay on IGROV1 ovarian is over 100 µM; in the assay with LOX IMVI melanoma, 62.4 µM; with RPMI-8226 leukemia, 49.5 µM; in the assay on U251 CNS, over 100 µM.
In the case of `CCOC(=O)C(/C=N\C(=S)Nc1ccc(OCC)cc1)=C(/O)c1ccccc1`, the TGI was 88.4 µM with A498 renal; over 100 µM in the assay on CCRF-CEM leukemia; over 100 µM in the assay on COLO 205 colon; over 100 µM in the assay with EKVX NSCLC; 67.8 µM in the assay on HOP-92 NSCLC; over 100 µM in the assay on HS 578T breast. Besides, the TGI in the assay with IGROV1 ovarian, in the assay with LOX IMVI melanoma, with RPMI-8226 leukemia and in the assay on U251 CNS was over 100 µM throughout.
On to `COc1ccc(-c2cn[nH]c2-c2cc(OC)c3c(c2)OCCO3)cc1`, for which the GI50 in the assay with A498 renal is 0.0298 µM; in the assay on CCRF-CEM leukemia, 0.298 µM; in the assay with COLO 205 colon it was 0.0591 µM; with HOP-92 NSCLC, 1.04 µM; in the assay on HS 578T breast, 0.231 µM; in the assay with IGROV1 ovarian, 0.384 µM. The GI50 was 0.581 µM in the assay on LOX IMVI melanoma, 0.373 µM in the assay with RPMI-8226 leukemia and 0.159 µM in the assay with U251 CNS. The TGI in the assay with A498 renal is 0.419 µM; in the assay on CCRF-CEM leukemia, over 73.9 µM; in the assay with COLO 205 colon, 0.585 µM; in the assay with HOP-92 NSCLC, 28.1 µM; in the assay with HS 578T breast, 34.4 µM; in the assay with IGROV1 ovarian, 39.6 µM. Also, the TGI is 15.2 µM in the assay on LOX IMVI melanoma, 25.2 µM in the assay with RPMI-8226 leukemia and 12.2 µM in the assay with U251 CNS.
In the case of `CCN1CSC(=S)N(CC)C1`, the TGI in the assay with A498 renal, with CCRF-CEM leukemia, with COLO 205 colon, in the assay with EKVX NSCLC, in the assay with HOP-92 NSCLC and in the assay with HS 578T breast was over 100 µM each time. Also, the TGI in the assay with IGROV1 ovarian, with RPMI-8226 leukemia and in the assay on U251 CNS was over 100 µM each time.
Regarding `O=C(O)CSc1ncccc1[N+](=O)[O-]`, the TGI in the assay with A498 renal, in the assay with CCRF-CEM leukemia, in the assay with COLO 205 colon, in the assay with EKVX NSCLC, in the assay with HOP-92 NSCLC and in the assay with HS 578T breast was over 100 µM throughout. The TGI in the assay with IGROV1 ovarian, in the assay with LOX IMVI melanoma and with U251 CNS was over 100 µM throughout.
Consider `C/C(=N\NC(N)=S)c1nc2ccc(Cl)cc2[nH]1`, for which the GI50 was 7.11 µM in the assay with A498 renal; 2.11 µM with CCRF-CEM leukemia; 2.17 µM in the assay with COLO 205 colon; 0.966 µM in the assay with EKVX NSCLC; 12 µM with HOP-92 NSCLC; 12.2 µM with HS 578T breast. Also, the GI50 was 3.06 µM with IGROV1 ovarian, 3.3 µM in the assay with RPMI-8226 leukemia and 2.6 µM in the assay with U251 CNS. Also, the TGI was 22.5 µM in the assay on A498 renal; over 50 µM in the assay on CCRF-CEM leukemia; 10.1 µM in the assay with COLO 205 colon; 12.3 µM with EKVX NSCLC; 39.1 µM with HOP-92 NSCLC; over 50 µM in the assay with HS 578T breast. The values for the TGI in the assay on IGROV1 ovarian, with RPMI-8226 leukemia and in the assay with U251 CNS were 17.8 µM, 30.6 µM and 13 µM, respectively.

The record behind these values is PubChem BioAssay (NCI).
